The text below walks through data of BindingDB's records for doi:10.1124/mol.64.4.865 (The Danish University of Pharmaceutical Sciences, 2003).

Assay [1] addresses T1, Muscarinic acetylcholine receptor M2 (Rattus norvegicus, UniProt P10980).
T1 sequence (P10980 whole entry): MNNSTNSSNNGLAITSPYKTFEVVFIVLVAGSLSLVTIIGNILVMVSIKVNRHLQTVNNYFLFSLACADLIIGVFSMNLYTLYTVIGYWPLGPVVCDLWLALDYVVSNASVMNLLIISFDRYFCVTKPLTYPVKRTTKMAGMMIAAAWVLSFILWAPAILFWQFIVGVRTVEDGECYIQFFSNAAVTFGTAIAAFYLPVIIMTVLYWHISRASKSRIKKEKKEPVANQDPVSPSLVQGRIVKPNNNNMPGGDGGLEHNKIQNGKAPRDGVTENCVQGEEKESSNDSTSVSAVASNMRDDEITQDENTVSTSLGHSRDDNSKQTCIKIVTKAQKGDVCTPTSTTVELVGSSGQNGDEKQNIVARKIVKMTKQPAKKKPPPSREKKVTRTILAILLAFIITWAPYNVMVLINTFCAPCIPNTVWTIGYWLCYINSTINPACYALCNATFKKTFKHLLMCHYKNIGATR

Assay [2] has as its target Nicotinic acetylcholine receptor (Rattus leucopus, UniProt Q62594).
The target in assay [3] is Neuronal acetylcholine receptor subunit alpha-4 (Rattus norvegicus, UniProt P09483).
Neuronal acetylcholine receptor subunit alpha-4, sequence (P09483 whole entry): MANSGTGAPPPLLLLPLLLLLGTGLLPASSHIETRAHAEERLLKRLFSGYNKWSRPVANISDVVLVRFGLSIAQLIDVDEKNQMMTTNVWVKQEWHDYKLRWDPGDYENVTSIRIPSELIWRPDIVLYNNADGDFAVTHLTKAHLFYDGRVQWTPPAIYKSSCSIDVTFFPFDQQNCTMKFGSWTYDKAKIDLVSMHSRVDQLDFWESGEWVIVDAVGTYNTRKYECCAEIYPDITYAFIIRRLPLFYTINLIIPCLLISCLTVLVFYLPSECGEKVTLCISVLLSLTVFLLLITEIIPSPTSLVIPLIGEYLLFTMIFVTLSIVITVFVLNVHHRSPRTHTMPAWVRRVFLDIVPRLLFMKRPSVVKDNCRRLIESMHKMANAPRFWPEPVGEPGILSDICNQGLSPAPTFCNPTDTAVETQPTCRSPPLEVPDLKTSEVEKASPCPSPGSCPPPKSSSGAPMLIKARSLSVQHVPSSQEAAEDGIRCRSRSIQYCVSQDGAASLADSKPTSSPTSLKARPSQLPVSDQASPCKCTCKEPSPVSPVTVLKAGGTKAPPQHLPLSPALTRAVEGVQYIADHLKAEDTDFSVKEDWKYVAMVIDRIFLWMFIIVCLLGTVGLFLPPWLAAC
Assay [4] addresses Neuronal acetylcholine receptor subunit alpha-3 (Rattus norvegicus, UniProt P04757).
The target in assay [5] is Neuronal acetylcholine receptor subunit alpha-7 (Rattus norvegicus, UniProt Q05941).
Neuronal acetylcholine receptor subunit alpha-7, sequence (Q05941 whole entry): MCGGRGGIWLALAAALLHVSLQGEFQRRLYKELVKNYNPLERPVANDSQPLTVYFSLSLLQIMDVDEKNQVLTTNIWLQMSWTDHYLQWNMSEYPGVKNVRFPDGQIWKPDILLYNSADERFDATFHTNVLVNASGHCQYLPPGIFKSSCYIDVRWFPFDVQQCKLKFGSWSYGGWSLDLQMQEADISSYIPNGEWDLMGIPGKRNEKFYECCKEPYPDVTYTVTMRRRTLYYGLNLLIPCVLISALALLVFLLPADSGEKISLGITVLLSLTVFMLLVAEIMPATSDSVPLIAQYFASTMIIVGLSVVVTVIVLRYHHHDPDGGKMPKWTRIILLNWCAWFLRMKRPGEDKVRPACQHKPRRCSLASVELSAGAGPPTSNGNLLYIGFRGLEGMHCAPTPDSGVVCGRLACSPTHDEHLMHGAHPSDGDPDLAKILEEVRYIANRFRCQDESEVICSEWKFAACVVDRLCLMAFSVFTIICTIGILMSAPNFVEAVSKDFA

Each structure is given as a SMILES string. Where “and” joins values, the source holds several entries; their conditions need not be identical. Equal values may be shown once.

Neuronal acetylcholine receptor subunit alpha-3, sequence (P04757 whole entry): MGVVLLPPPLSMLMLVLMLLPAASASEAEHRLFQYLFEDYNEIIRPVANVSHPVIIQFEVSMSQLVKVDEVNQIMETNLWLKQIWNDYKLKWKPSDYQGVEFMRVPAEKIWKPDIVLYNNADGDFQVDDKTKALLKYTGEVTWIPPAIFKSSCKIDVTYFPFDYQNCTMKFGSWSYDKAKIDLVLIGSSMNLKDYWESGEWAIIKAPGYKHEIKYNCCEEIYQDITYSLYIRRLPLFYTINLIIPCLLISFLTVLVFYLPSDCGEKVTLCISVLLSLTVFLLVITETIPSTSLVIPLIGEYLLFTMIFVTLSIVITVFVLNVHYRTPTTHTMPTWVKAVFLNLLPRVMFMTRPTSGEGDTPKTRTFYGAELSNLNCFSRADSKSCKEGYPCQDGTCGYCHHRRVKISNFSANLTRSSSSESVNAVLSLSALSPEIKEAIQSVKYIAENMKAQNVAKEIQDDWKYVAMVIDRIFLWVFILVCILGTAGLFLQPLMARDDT
Nicotinic acetylcholine receptor, sequence (Q62594 whole entry): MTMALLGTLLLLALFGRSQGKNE

A word on the Ki: it is the equilibrium dissociation constant of an inhibitor or competing ligand from its target. A low value points to higher affinity. For `CN(C)C(=O)OCC[N+](C)(C)C` [CAS_84607], the Ki turned out to be 1200 nM in assay [1] and 20 nM in assay [2].
On to `C[C@H](CCOC(=O)N(C)C)N(C)C` [3-N,N-dimethylaminobutyl-N,N-dimethylcarbamate], for which the inhibition constant Ki in assay [1] was 3600 nM; in assay [3], 17 nM and 66 nM; in assay [4], 370 nM; in assay [2] it was 9 nM; in assay [5], greater than 10000 nM.
For `CN(C)CCOC(=O)N(C)C` [DMCAE], the figures for the Ki in assay [1] and in assay [2] were greater than 10000 nM and 5700 nM, respectively.
For `O=c1cccc2n1CC1CNCC2C1` (stereo unspecified) [CAS_485-35-8], the Ki in assay [3] is 1.3 nM and 6.8 nM; in assay [4], 130 nM; in assay [5] it was greater than 10000 nM.
`COC(=O)Nc1ccc(Cl)c(Cl)c1` [SWEP]: the Ki is 150 nM in assay [1], 2700 nM in assay [4], 23 nM in assay [2] and greater than 10000 nM in assay [5].
